Reference: patent US20110034472A1, “Novel Compounds for Treatment of Cancer and Disorders Associated With Angiogenesis Function” (UNIVERSITY OF SOUTHERN CALIFORNIA, priority 2004, published 2011)
“Also recorded” adds a separate entry of the source. Read-outs that look alike come from different tables or passages of the source.

Experiments:
[1] = tested on: panel of seven human cancer cell lines; assay: MTT-assay, panel of seven human cancer cell lines; assay type: cell-based; conditions: read-out: CC50 dose range
Experimental: The sensitivity of a panel of seven human cancer cell lines to SC144 was assessed by MTT-assay. […] The sensitivity towards SC144 was time- and dose-dependent.

[2] = tested on: HOP-62 non-small cell lung cancer cells; assay: Sensitivity of various cancer cells to SC144, HOP-62; assay type: cell-based; conditions: Homo sapiens
From the text: (§1) The studies were expanded to other cell lines. […] Subnanomolar to low nanomolar potency was also observed in HCT-116 and HT29 colon cancer cell lines (Table 2).

[3] = tested on: RPMI-8226 leukemia cells; assay: Sensitivity of various cancer cells to SC144, RPMI-8226; assay type: cell-based; conditions: Homo sapiens
From the text: as §1

[4] = tested on: UACC-257 melanoma cells; assay: Sensitivity of various cancer cells to SC144, UACC-257; assay type: cell-based; conditions: Homo sapiens
From the text: as §1

[5] = tested on: SKOV3 ovarian cancer cells; assay: Sensitivity of various cancer cells to SC144, SKOV3; assay type: cell-based; conditions: Homo sapiens, SK-OV-3
From the text: as §1

[6] = tested on: HCT-116 colon cancer cells; assay: Sensitivity of various cancer cells to SC144, HCT-116; assay type: cell-based; conditions: Homo sapiens
From the text: as §1

[7] = tested on: HT29 colon cancer cells; assay: Sensitivity of various cancer cells to SC144, HT29; assay type: cell-based; conditions: Homo sapiens, HT-29
From the text: as §1

[8] = tested on: T24 cells; assay: Two-dimensional gel electrophoresis proteomic analysis, SC23; assay type: cell-based, human; conditions: 2D gel spots, SC23 treatment
Experimental: Cells were treated for 12, 24, 48 and 72 hr with SC23 (IC80 dose). The soluble fraction was then extracted and quantified. […] of protein was loaded in the first dimension gel at 800 V for 16 h. Gels were then equilibrated, separated on a 12% SDS-PAGE gel for the second dimension, stained with CyproRuby, and imaged by Typhoon 9100.
SC23-Treated Cells Upregulate a Variety of Proteins in the Molecular Weight Range of 8-58 kDa. […] 2DE was then used to separate these proteins (FIG. 29). As above, treatment with SC23 led to a significant up-regulation of many proteins. Similar analysis was carried out for DU145 cells treated with SC23.
Proteins identified from the spots shown in FIG. 30 are 3-tubulin, myc promoter-binding protein (MPB-1), retinoblastoma-binding protein 7, vimentin, enolase, phosphopyruvate hydratase beta, mitochondrial ATP synthase beta chain.
Among the several spots that were at least 4-fold overexpressed was β-tubulin, which is related to the top three genes identified from our microarray analysis as described above.

[9] = tested on: PC3 xenografts; assay: PC3 human prostate cancer xenograft in athymic nude mice; assay type: in vivo
Experimental: FIG. 20. (A) is a schematic outline of tumor growth and dosing in PC3 mice xenografts. […] Athymic nude mice implanted with PC3 cells were treated with the indicated concentration of SC21 through daily i.p. administration for 5 d. Tumor growth was monitored for 5 wks. Values represent the tumor weight (mean±SD) for each group. (C) depicts dose-response to SC21 in the PC3 xenograft. Values represent the % T/C from each treatment group on the last day of measurement (after 5 wks); bars,±SD.
Fifty male athymic nude (nu/nu) mice (Charles River Laboratories, Wilmington, Mass.) were used for in vivo testing. The animals were fed ad libitum and kept in air conditioned rooms at 20±2° C. with a 12-hour light-dark period. Animal care and manipulation were in agreement with the University of Southern California Institutional Guidelines, which are in accordance with the Guidelines for the Care and Use of Laboratory Animals.
PC3 cells from in vitro cell culture were inoculated s.c. in both flanks of athymic nude mice (2×10^6 cells/flank) under aseptic conditions. Tumor growth was assessed by biweekly measurement of tumor diameters with a Vernier caliper (length×width). Tumor weight was calculated according to the formula: TW (mg)=tumor volume (mm^3)=d^2×D/2, where d and D are the shortest and longest diameters, respectively. Cells were allowed to grow to an average volume of 100 mm^3. Animals were then randomly assigned for control and treatment groups, to receive control vehicle or SC21 (0.3 and 3 mg/kg, dissolved in isotonic saline solution) via i.p. injections once a day for 5 days. Treatment of each animal was based on individual body weight. After 5 days of treatment, the tumor volumes in each group were measured […]. Treated animals were checked daily for treatment toxicity/mortality. The percentage of tumor growth inhibition was calculated as % T/C=100× (mean TW of treated group/mean TW of control group).
The in vivo efficacy of SC21 was evaluated in nude mice inoculated with human prostate PC3 cells. Animals were treated with daily i.p. injections of saline (controls) and SC21 at 0.3 or 3 mg/kg. After 5 days of dosing, the drug treatment was discontinued and the animals were monitored biweekly for 5 weeks.

[10] = 0.3 or 3 mg/kg daily i.p. for 5 days

O=C(NNc1nc2cc(F)ccc2n2cccc12)c1cnccn1 [SC144, Pyrazine-2-carboxylic acid N′-(7-fluoro-pyrrolo[1,2-a]quinoxalin-4-yl)-hydrazide]
CC50 [1]: 700 to 10000 nM | CC50 ([2]; HOP-62, read-out: CC50): 10 nM | CC50 ([2]; non-small cell lung cancer cells HOP-62, EKVX, and HOP-92, read-out: CC50 values range): 10 to 20 nM | CC50 [3]: 250 nM | CC50 [4]: 400 nM | CC50 [5]: 120 nM | CC50 [6]: 17 nM | CC50 [7]: 78 nM

O=C(NNC(O)c1cc2ccccc2cc1O)c1cc2ccccc2cc1O (stereo not shown) [SC23]
β-tubulin protein overexpression [8]: at least 4 fold

O=C(NNC(=O)c1ccccc1O)C1=CC2C=CC=CC2C=C1O (stereo not shown) [SC21]
average weight of mice ([9]; 0.3 mg/kg of SC21): 32.1 ± 1.92 g | average weight of mice ([9]; 3.0 mg/kg of SC21): 33.3 ± 1.89 g | tolerability, drug-related deaths, body weight [9, 10]: well-tolerated and did not result in any drug-related deaths and changes in body weight | tumor burden / tumor growth [9, 10]: significantly reduced tumor burden; also recorded: Significant reduction in tumor growth
